{"source": "patent US5506115A", "about": "“Reagent and method for determining activity of herpes protease” (G. D. Searle & Co., priority 1994, dated 1996)", "molecular_target": "T1, CMV assemblin (Human cytomegalovirus, UniProt P16753)", "T1 construct": "a DNA construction encoding the protease domain of the UL 80 open reading frame; His6 (N); made in house; host or cells: E. coli", "T1 sequence (P16753 1-256)": "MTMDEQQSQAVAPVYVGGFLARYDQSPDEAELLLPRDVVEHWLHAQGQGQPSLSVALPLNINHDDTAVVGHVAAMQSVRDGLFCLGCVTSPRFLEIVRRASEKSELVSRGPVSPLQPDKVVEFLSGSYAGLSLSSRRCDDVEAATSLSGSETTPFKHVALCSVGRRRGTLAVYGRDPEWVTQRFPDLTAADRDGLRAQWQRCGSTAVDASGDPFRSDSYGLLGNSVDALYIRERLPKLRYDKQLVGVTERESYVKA", "assay": "Hydrolysis of fluorogenic substrate by CMV assemblin (fluorescence time course, FIG. 2)", "format": "biochemical", "conditions": "10 μM DE1, protease added; 340 nm excitation, 480 nm emission; within 30 minutes", "method": "The fluorometric assay developed to incorporate the substrate compounds of the invention is a method for the determination of a herpesvirus protease and inhibitors of a herpesvirus protease, e.g. a CMV protease (also known as assemblin) encoded by UL 80, which comprises placing a known amount of the herpesvirus protease in the wells of a \"Microlite 1\"96 well plate (Dynatek Laboratories, Inc.), adding a known amount of the substrate at 22° C., measuring the change in fluorescence with time and determining the molar velocity of the herpesvirus protease by comparing against a standard curve which relates changes in fluorescent intensity to changes in concentration of product. Potential inhibitors of the protease action can be added to the well to observe their effect on the protease cleavage activity.\nThe arrow indicates the addition of protease to 10 μM DE1 [SEQ ID NO:34]. […] Fluorescence magnitude is plotted versus time.\nAn assay was developed for screening potential herpesvirus protease inhibitors utilizing the substrates of the invention. Recombinant HCMV protease was purified from E. coli expressing a DNA construction encoding the protease domain of the UL 80 open reading frame of human cytomegalovirus strain AD169. The construction also encoded six additional histidine residues at the amino terminus of the protease. […]", "note": "Where a SMILES comes first, the peptide text is derived from it. The star is where a group is joined. Dabcyl = CN(C)c1ccc(N=Nc2ccc(C(=O)*)cc2)cc1; EDANS = O=S(=O)(O)c1cccc2c(NCCN*)cccc12; GABA = NCCCC(=O)O", "data": [{"smiles": "CC(C)C[C@H](NC(=O)[C@H](CCCNC(=N)N)NC(=O)[C@H](C)NC(=O)[C@H](CO)NC(=O)[C@H](C)NC(=O)[C@H](CC(N)=O)NC(=O)[C@@H](NC(=O)[C@@H](NC(=O)CCCNC(=O)c1ccc(N=Nc2ccc(N(C)C)cc2)cc1)C(C)C)C(C)C)C(=O)NCCNc1cccc2c(S(=O)(=O)O)cccc12", "note": "[DE1, DABCYL-γ-Abu-Val-Val-Asn-Ala-Ser-Ala-Arg-Leu-EDANS] ({Dabcyl-GABA}-VVNASARL-{EDANS})", "values": [{"measurement": "increase in fluorescence emission on cleavage of the substrate", "result": 10, "unit": "fold"}]}]}
